Patent US20120225862A1, “HETEROARYL BENZAMIDES, COMPOSITIONS AND METHODS OF USE” (AUCKLAND UNIVSERVICES LIMITED, priority 2009, published 2012)

Key:
[1] = system: RCC4/VHL; test: XTT IC50 assay, selectivity RCC4 versus RCC4 with VHL-reintroduced; type: cell-based, human; details: selectivity ratio of XTT IC50 values, RCC4 vs RCC4/VHL
In short: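 RCC4 parental and VHL-reintroduced RCC4/VHL cells (DMEM, 10% FCS) treated with serially diluted drug for four days. Viability by XTT (0.3 mg/mL) with N-methyl dibenzopyrazine methyl sulfate, 1–2 h at 37 °C, absorbance 450 nm; IC50 by linear interpolation.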

[2] = system: RCC4/VHL; test: Necrotic cell death by trypan blue, RCC4/VHL; type: cell-based, human; details: 3 days, 5 μM, FIG. 2F
Method: For 2,3-bis[2-methoxy-4-nitro-5-sulfophenyl]-2H-tetrazolium-5-carboxanilide (XTT) assays, five thousand cells were plated in 96-well plates. The next day, vehicle (DMSO) or drug was added by serial dilution. Four days later, media were aspirated, XTT solution (0.3 mg/ml of XTT (Sigma), 2.65 mg/ml N-methyl dibenxopyrazine methyl sulfate (Simga) in phenol red-free media) was added, and the plates were incubated at 37° C. for 1-2 hours. Metabolism of XTT was quantified by measuring the absorbance at 450 nm. IC50s were calculated using linear interpolation. For clonogenic survival assays, three hundred cells were plated per 60 mm tissue culture dish. The cells were allowed to attach overnight and then treated with vehicle or drug for 14 days. Colonies were fixed and stained with crystal violet (0.1% crystal violet in 95% ethanol). All conditions were measured in triplicate and each experiment was done in duplicate or triplicate. To determine necrosis, cells were treated with drug for a given time point. Media and cells were collected, centrifugated, and resuspended in 0.4% trypan blue (Invitrogen). Live and dead cells were counted on a hematocytometer.

[3] = system: RCC4; test: Lactate production (glycolysis), RCC4; type: cell-based; details: Homo sapiens; RCC4, 5 μM, compared to control-treated cells; read-out: inhibition of lactate production in VHL-deficient cells
Method: (§1) All cells were grown in DMEM+10% FCS. ACHN and ACHN shVHL were a kind gift from George V. Thomas (UCLA). HIF overexpressing clones were described previously. Transfection of RNA oligos were performed with DnarmaFECT Reagent 1 (Dharmcon), according to manufacturer's directions. ON-TARGETplus SMART pools against HIF-1β/ARNT were purchased from Dharmacon. Glut1 was detected with anti-GLUT1 antibody from NeoMarkers/LabVision/Fisher. Pyruvate/lactate levels and hexokinase activity were both measured by fluorometric assay (BioVision and Sigma-Aldrich, respectively). ATP levels were measured by bioluminescence assay (ATP Determination Kit from Molecular Probes/Invitrogen). In vitro kinase activities were performed by Millipore KinaseProfiler. Affi-Gel 10 (BioRad) activated affinity media was coupled to analogs to generate immobilized affinity linkers.
As the central mediator of oxygen homeostasis, HIF plays an important role in the cellular adaptation to low oxygen conditions through the regulation of genes involved in metabolism and energy production. Inactivation of VHL results in an increase in the half-life of HIF protein. […] To examine whether this compound alters the rate of glycolysis in VHL-deficient cells, we measured the intracellular production of lactate, which is rapidly converted from pyruvate, the end-product of glycolysis. […]

[4] = target: T1, CK1γ1 (Homo sapiens, UniProt Q9HCP0); test: In vitro kinase activity (Millipore KinaseProfiler): CK1γ1; type: biochemical; details: no head or unit printed
T1 construct: purchased Millipore (KinaseProfiler service)
Method: as §1
(§2) We next wanted to investigate the differential glucose uptake between RCCs with and without VHL treated with compound 47 that subsequently lead to the selective death of VHL-deficient cells. We first examined the message levels of the two main glucose transporters, GLUT1 and GLUT2 by quantitative real-time PCR. GLUT1 is an inducible, high-affinity glucose transporter, while GLUT2 is the glucose transporter responsible for basal glucose uptake. […] Cells deficient in VHL had very low levels of GLUT2 that could barely be detected (FIG. 3J). […]

[5] = target: T2, Hck (Homo sapiens, UniProt P08631); test: In vitro kinase activity (Millipore KinaseProfiler): Hck; type: biochemical; details: no head or unit printed
T2 construct: purchased Millipore (KinaseProfiler service)
Method: as §1, §2

[6] = target: T3, IGF-1R (Homo sapiens, UniProt P08069); test: In vitro kinase activity (Millipore KinaseProfiler): IGF-1R; type: biochemical; details: no head or unit printed
T3 construct: purchased Millipore (KinaseProfiler service)
Method: as §1, §2

[7] = target: T4, MSK1 (Homo sapiens, UniProt O75582); test: In vitro kinase activity (Millipore KinaseProfiler): MSK1; type: biochemical; details: no head or unit printed
T4 construct: purchased Millipore (KinaseProfiler service)
Method: as §1, §2

[8] = target: T5, PAK2 (Homo sapiens, UniProt Q13177); test: In vitro kinase activity (Millipore KinaseProfiler): PAK2; type: biochemical; details: no head or unit printed
T5 construct: purchased Millipore (KinaseProfiler service)
Method: as §1, §2

[9] = system: PI3K; test: In vitro kinase activity (Millipore KinaseProfiler): PI3K; type: biochemical; details: no head or unit printed
Method: as §1, §2

[10] = target: T6, PKCδ (Homo sapiens, UniProt Q05655); test: In vitro kinase activity (Millipore KinaseProfiler): PKCδ; type: biochemical; details: no head or unit printed
T6 construct: purchased Millipore (KinaseProfiler service)
Method: as §1, §2

[11] = target: T7, Tie2 (Homo sapiens, UniProt Q02763); test: In vitro kinase activity (Millipore KinaseProfiler): Tie2; type: biochemical; details: no head or unit printed
T7 construct: purchased Millipore (KinaseProfiler service)
Method: as §1, §2

[12] = target: T8, TrkA (Homo sapiens, UniProt P04629); test: In vitro kinase activity (Millipore KinaseProfiler): TrkA; type: biochemical; details: no head or unit printed
T8 construct: purchased Millipore (KinaseProfiler service)
Method: as §1, §2

T6 sequence (Q05655 whole entry): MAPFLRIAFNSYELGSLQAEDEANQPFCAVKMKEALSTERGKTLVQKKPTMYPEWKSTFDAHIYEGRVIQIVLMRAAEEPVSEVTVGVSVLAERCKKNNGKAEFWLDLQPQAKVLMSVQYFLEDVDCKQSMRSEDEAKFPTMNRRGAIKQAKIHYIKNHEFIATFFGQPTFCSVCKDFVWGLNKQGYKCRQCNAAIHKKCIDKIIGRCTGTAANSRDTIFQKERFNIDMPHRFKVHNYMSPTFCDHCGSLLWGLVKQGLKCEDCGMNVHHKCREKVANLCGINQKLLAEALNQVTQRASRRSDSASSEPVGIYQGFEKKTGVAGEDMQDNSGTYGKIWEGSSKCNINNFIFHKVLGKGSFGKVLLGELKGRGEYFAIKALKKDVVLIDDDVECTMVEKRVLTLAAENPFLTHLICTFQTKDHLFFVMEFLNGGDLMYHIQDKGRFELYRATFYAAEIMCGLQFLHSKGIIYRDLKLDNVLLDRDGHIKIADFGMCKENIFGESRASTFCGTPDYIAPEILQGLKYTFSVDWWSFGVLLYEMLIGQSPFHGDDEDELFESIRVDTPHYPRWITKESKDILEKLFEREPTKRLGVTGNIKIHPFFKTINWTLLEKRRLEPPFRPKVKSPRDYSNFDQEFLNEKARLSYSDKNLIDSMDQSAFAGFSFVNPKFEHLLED
T1 sequence (Q9HCP0 whole entry): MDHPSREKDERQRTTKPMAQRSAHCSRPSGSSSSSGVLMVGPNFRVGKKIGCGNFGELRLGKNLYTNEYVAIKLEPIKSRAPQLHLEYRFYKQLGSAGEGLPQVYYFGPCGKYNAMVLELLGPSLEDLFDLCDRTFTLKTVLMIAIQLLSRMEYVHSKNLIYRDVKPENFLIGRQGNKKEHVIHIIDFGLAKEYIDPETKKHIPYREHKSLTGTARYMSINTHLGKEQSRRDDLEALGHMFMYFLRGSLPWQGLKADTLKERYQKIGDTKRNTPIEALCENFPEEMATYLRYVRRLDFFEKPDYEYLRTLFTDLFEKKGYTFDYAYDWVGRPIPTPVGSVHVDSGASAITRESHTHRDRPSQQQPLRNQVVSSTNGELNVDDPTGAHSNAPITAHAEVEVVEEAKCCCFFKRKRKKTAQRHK
T7 sequence (Q02763 23-1124): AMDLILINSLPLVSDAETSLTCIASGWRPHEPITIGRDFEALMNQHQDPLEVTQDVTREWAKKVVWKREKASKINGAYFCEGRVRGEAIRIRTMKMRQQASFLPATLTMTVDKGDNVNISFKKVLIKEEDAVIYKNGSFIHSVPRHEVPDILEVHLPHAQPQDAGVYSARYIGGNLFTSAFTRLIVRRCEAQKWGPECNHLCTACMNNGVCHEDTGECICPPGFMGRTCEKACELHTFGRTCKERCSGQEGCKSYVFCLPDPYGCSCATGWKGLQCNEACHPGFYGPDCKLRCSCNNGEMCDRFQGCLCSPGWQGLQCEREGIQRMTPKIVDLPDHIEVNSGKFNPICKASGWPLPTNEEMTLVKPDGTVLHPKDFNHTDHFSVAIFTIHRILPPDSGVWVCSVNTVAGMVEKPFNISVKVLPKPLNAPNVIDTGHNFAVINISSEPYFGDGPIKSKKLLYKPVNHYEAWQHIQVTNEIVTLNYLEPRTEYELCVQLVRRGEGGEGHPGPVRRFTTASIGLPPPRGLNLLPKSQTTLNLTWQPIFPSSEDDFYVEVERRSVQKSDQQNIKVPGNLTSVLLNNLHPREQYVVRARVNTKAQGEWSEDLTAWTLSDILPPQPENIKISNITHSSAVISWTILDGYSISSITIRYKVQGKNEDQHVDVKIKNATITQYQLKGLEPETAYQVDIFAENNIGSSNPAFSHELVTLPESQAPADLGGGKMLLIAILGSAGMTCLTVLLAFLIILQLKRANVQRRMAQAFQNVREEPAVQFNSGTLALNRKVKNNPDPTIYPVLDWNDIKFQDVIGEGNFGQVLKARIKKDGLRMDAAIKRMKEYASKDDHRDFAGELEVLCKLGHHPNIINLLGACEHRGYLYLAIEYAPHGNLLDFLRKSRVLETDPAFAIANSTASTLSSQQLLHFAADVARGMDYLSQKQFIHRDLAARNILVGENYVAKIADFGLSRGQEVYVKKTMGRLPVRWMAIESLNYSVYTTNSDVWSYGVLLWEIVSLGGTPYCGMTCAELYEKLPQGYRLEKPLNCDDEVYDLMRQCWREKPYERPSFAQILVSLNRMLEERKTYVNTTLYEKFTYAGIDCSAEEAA
T5 sequence (Q13177 whole entry, species assumed): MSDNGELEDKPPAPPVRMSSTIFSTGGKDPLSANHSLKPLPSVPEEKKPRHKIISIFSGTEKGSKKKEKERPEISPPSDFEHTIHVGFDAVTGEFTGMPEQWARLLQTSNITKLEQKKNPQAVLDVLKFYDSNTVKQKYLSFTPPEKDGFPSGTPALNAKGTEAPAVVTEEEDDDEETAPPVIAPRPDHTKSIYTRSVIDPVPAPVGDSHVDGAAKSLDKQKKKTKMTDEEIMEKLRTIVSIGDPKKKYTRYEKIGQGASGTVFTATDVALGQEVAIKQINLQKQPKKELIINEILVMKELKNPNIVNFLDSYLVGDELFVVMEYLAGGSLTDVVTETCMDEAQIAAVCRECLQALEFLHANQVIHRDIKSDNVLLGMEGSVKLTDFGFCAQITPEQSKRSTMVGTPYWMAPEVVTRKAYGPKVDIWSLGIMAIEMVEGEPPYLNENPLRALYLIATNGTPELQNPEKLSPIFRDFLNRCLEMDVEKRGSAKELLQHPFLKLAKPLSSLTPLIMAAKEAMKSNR
T3 sequence (P08069 31-1367, species assumed): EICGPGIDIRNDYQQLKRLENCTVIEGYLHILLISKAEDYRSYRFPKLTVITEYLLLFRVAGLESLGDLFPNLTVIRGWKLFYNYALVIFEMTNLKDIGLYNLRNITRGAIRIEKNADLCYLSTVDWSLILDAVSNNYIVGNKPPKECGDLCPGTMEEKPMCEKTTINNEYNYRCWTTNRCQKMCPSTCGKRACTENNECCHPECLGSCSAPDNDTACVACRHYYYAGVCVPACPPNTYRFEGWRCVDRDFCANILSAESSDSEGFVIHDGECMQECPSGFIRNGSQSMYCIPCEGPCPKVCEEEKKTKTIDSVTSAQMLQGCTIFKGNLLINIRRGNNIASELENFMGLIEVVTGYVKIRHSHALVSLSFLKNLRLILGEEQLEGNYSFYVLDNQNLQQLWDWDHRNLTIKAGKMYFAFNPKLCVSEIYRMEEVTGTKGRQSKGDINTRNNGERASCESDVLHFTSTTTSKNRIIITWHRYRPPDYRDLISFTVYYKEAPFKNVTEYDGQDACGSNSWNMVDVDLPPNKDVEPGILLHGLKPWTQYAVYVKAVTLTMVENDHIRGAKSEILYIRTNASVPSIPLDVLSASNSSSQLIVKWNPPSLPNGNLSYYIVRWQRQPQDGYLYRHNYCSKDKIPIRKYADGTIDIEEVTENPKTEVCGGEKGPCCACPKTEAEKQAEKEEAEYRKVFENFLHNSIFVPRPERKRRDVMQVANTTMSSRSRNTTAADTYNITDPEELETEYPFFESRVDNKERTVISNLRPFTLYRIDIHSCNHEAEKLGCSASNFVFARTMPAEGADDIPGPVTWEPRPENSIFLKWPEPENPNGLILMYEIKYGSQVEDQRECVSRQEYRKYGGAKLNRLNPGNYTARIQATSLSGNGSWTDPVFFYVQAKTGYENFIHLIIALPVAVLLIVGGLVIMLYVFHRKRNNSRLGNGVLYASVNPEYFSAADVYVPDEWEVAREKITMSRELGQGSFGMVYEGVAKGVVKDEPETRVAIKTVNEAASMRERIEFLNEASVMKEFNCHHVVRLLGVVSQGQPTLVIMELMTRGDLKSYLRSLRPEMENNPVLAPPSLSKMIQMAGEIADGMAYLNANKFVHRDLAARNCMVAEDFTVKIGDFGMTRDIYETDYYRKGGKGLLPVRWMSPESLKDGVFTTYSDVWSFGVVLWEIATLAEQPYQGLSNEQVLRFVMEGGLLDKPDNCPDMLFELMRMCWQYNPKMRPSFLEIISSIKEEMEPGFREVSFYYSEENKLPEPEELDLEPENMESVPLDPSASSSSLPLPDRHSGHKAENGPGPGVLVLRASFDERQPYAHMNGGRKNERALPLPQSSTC
T2 sequence (P08631 whole entry, species assumed): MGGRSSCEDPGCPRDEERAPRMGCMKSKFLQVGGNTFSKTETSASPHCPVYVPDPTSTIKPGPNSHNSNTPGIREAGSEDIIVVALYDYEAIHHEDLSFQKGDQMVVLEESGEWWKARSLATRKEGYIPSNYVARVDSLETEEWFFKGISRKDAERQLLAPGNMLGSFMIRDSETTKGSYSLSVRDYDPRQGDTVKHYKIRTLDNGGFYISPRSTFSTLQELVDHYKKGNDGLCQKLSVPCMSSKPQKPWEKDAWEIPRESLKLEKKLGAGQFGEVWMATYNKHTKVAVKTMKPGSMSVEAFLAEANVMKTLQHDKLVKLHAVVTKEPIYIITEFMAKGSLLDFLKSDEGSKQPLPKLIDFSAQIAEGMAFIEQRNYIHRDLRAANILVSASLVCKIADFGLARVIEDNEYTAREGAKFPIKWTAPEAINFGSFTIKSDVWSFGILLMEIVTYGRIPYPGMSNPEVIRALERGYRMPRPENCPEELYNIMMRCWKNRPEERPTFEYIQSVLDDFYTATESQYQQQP

## CC(C)(C)c1ccc(S(=O)(=O)NCc2ccc(C(=O)Nc3cccnc3)cc2)cc1 [Example 38, 4-((4-tert-Butylphenylsulfonamido)methyl)-N-(pyridin-3-yl)benzamide]
[1]
  Ratio (RCC4:RCC/VHL): c (“c” reflects a ratio of >100)
[2]
  necrotic cell death in RCC4/VHL: relatively insensitive
[3]
  inhibition at 5 µM: ~60%
[4]
  CK1γ1 kinase activity: 85%
[5]
  Hck kinase activity: 84%
[6]
  IGF-1R kinase activity: 108
[7]
  MSK1 kinase activity: 107
[8]
  PAK2 kinase activity: 97%
[9]
  PI3K kinase activity: 97
[10]
  PKCδ kinase activity: 116
[11]
  Tie2 kinase activity: 111%
[12]
  TrkA kinase activity: 124
